The numbers were not newly measured in US8263630B2, “1,2,3-triazoles as 11-beta hydroxysteroid dehydrogenase type I inhibitors” (Bristol-Myers Squibb Company, priority 2008, dated 2012), which cites them from elsewhere.

Each structure is given as a SMILES string.

In the data set the target is T1, 11beta-HSD1 (Homo sapiens, UniProt P28845).
T1 construct: host or cells: human patients (liver), in vivo
Conditions: mildly overweight individuals with type 2 diabetes; seven day treatment; versus placebo.

T1 sequence (P28845 whole entry): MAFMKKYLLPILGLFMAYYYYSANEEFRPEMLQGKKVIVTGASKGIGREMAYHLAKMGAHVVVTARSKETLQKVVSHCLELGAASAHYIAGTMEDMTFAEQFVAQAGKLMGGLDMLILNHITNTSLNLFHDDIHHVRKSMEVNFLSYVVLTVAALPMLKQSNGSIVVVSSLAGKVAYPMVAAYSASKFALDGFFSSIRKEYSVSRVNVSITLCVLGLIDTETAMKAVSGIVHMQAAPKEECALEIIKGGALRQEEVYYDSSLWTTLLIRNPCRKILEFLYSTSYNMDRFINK

Consider `CC1(C)[C@@H](OC(=O)CCC(=O)O)CC[C@]2(C)[C@H]3C(=O)C=C4[C@@H]5C[C@@](C)(C(=O)O)CC[C@]5(C)CC[C@@]4(C)[C@]3(C)CC[C@@H]12` [carbenoxolone], for which the hepatic glucose production entry is reported as “decrease in hepatic glucose production”.
